Assay results: US8937039B2, “Peptide-based peroxidase inhibitors and methods of using same” (The Medical College of Wisconsin, Inc., priority 2009, dated 2015)
Entries after “also recorded” stand apart in the source; their conditions may differ. Residues, ends and D or L forms follow the SMILES beside them.

Experiments:
MPO [1] = target: T1, MPO (Homo sapiens, UniProt P05164); conditions: reported, order of magnitude; cited from earlier work
T1 sequence (P05164 49-745): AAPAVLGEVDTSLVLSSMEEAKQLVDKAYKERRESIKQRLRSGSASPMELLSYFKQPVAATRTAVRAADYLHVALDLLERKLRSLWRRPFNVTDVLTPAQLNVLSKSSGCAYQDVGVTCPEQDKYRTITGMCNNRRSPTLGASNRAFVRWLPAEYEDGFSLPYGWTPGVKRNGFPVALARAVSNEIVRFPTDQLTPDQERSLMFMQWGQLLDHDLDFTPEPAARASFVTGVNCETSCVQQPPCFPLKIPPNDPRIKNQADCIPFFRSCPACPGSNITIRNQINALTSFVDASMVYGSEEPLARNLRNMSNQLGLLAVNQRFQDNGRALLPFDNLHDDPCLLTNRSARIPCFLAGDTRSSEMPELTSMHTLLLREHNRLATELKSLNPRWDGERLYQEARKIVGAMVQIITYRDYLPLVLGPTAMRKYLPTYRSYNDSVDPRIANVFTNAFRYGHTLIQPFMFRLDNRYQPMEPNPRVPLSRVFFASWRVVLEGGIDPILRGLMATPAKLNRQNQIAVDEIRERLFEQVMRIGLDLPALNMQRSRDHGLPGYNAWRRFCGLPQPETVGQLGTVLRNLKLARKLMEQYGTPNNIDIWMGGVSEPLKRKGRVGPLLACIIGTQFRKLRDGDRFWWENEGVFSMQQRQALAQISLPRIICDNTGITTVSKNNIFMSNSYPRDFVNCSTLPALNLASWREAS

MPO [2] = target: T1, MPO; test: MPO-mediated LDL oxidation (conjugated diene formation, 234 nm); assay type: biochemical; design: purchased Lee Biosolutions (St. Louis, Mo.); conditions: 25 μM; for MPO/H2O2/nitrite-mediated LDL oxidation (in words): H2O2 100 μM, NaNO2 100 μM; for MPO/H2O2-mediated LDL oxidation in the absence of nitrite (in words): without NaNO2
Procedure: MPO-mediated oxidation of LDL. […] LDL oxidation was monitored at 234 nm at room temperature on a HP UV/VIS spectrometer. Absorbance traces represent the average of duplicate experiments.
MPO-mediated LDL Oxidation. […] Rates of LDL oxidation were monitored at room temperature at 234 nm, the wavelength maximum for conjugated dienes.
MPO-mediated LDL Conjugated Diene Formation: Reaction mixtures contained LDL (0.15 mg/mL), NaNO2 (100 μM), H2O2 (100 μM), MPO (20 nM) and increasing concentrations of KYC or equimolar concentrations of various compounds in a phosphate buffer (100 mM, pH 7.4) containing DTPA (100 μM). Rates of LDL conjugated diene formation were determined by following changes in absorbance at 234 nm, the wavelength maximum for conjugated dienes, on a UV-Vis spectrophotometer (Agilent Model 8453) at room temperature.

MPO [3] = target: T1, MPO; test: MPO-catalyzed HOCl production (taurine/TMB assay); assay type: biochemical; design: purchased Lee Biosolutions (St. Louis, Mo.); conditions: for Dose-dependent effect on MPO-catalyzed HOCl production (in words): increasing concentrations, FIG. 14C/14D; for Effect on MPO HOCl production at equimolar concentration (in words): 12.5 μM
Procedure: MPO-mediated HOCl Production. MPO (20 nM) was incubated with H2O2 (50 μM), NaCl (150 mM), taurine (5 mM) and increasing concentrations of KYC in phosphate buffer (100 mM, pH 7.4) which also contained diethylene triamine pentaacetic acid (DTPA, 100 μM) to prevent non-specific, divalent metal cation oxidation for 30 min. Reactions were halted by addition of catalase. Chlorotaurine was quantified using the 3,3-,5,5-tetramethylbenzidine (TMB) assay. Briefly, 400 μL of reaction solution was mixed with 100 μL of 2 mM TMB, 100 μM NaI containing 10% dimethylformamide (DMF) in 400 mM acetate buffer (pH 5.4). After 5 min, absorbance (650 nm) was recorded on a UV/Vis spectrophotometer (Agilent Model 8453).
MPO-catalyzed HOCl Production: MPO (20 nM) was incubated with H2O2 (50 μM), NaCl (150 mM), taurine (5 mM) and increasing concentrations of KYC in a phosphate buffer (100 mM, pH 7.4) containing diethylene triamine pentaacetic acid (DTPA, 100 μM) to prevent non-specific, divalent metal cation oxidation for 30 min. Reactions were halted by addition of catalase (2,000 units/mL). Chlorotaurine was quantified using the TMB assay (66). Briefly, 400 μL of reaction solution was mixed with 100 μL of 2 mM TMB, 100 μM NaI containing 10% dimethylformamide (DMF) in 400 mM acetate buffer (pH 5.4). After 5 min, absorbance (650 nm) was recorded on a UV/Vis spectrophotometer (Agilent Model 8453).

SS/Mcw rat hearts = test: Ischemia/reperfusion injury in isolated perfused hearts; conditions: FIG. 5B
Text: Ischemia/Reperfusion (I/R) Injury in Isolated Hearts. Rats used in this study received humane care in compliance with the Guide for the Care and Use of Laboratory Animals, by the National Research Council. Rats were maintained on a low salt (0.4% NaCl) diet with unlimited access to water. Environmental influences were minimized by maintaining rats in identical housing conditions. Dahl S (SS/Mcw male rats at 8 weeks of age were used for this study.
Modified Krebs-Henseleit bicarbonate buffer was prepared containing the following components (in mM): 118.5 NaCl, 25.0 NaHCO3, 4.8 KCl, 1.2 MgSO4.6H2O, and 1.2 KH2PO4 (pH 7.4 when gassed with 95% O2-5% CO2) in which the calcium content was 1.8. Glucose (11.1 mM) was added to the perfusate. Before use, all perfusion fluids were filtered through cellulose acetate membranes with a pore size of 5 μm. To this perfusate, drugs (KAA, KYC) were added as needed. Animals were weighed, and heparin was administered intraperitoneally based on weight (150 IU/kg). Anesthesia was induced with pentobarbital sodium (30 mg/kg ip). […] Left ventricular pressure (LVP) was measured isovolumetrically with a transducer connected to a thin, saline-filled latex balloon inserted into the left ventricle through the mitral valve from an incision in the left atrium. […]

[4] = Solubility in aqueous buffers; assay type: physicochemical

N[C@@H](CCC(=O)N[C@@H](CS)C(=O)NCC(=O)O)C(=O)O [GSH, glutathione]
Rate of reaction with MPO/H2O2 systems (MPO [1]): 10 to 100 M⁻¹ s⁻¹ | MPO/H2O2/nitrite-mediated LDL oxidation (in words) (MPO [2]): ineffective | MPO/H2O2-mediated LDL oxidation in the absence of nitrite (in words) (MPO [2]): inhibited; also recorded: did not increase LDL oxidation

CC(=O)N[C@@H](CCCCN)C(=O)N[C@@H](Cc1ccccc1)C(=O)N[C@@H](CS)C(N)=O [KFC, N-acetyl Lysylphenylalanylcysteine amid] (Ac-Lys-Phe-Cys-NH2)
Dose-dependent effect on MPO-catalyzed HOCl production (in words) (MPO [3]): weaker inhibitor | MPO/H2O2/nitrite-mediated LDL oxidation (in words) (MPO [2]): increased the lag phase and delayed, but did not totally inhibit

CC(=O)N[C@@H](CCCCN)C(=O)N[C@@H](Cc1c[nH]c2ccccc12)C(=O)N[C@@H](CS)C(N)=O [KWC] (Ac-Lys-Trp-Cys-NH2)
Cardioprotection in SS/Mcw rat hearts (in words) (SS/Mcw rat hearts): increase cardioprotection

N[C@@H](Cc1c[nH]c2ccccc12)C(=O)O [Trp, tryptophan]
Effect on MPO HOCl production at equimolar concentration (in words) (MPO [3]): effective inhibitor | MPO/H2O2/nitrite-mediated LDL oxidation (in words) (MPO [2]): did not inhibit but actually enhanced | MPO/H2O2-mediated LDL oxidation in the absence of nitrite (in words) (MPO [2]): increased

N[C@@H](Cc1ccc(O)cc1)C(=O)O [Tyr, tyrosine]
Effect on MPO HOCl production at equimolar concentration (in words) (MPO [3]): little, if any effect | Effect on MPO HOCl production at equimolar concentration (in words) (MPO [3]; listed as Tyrosine): little if any effect | MPO/H2O2/nitrite-mediated LDL oxidation (in words) (MPO [2]): accelerated and enhanced | MPO/H2O2-mediated LDL oxidation in the absence of nitrite (in words) (MPO [2]): increased

N[C@@H](Cc1ccc(O)cc1)C(=O)N[C@@H](CS)C(=O)O [YC, reference compound] (H-Tyr-Cys-OH; N-terminus and C-terminus assumed)
Solubility in water / aqueous buffers (in words) [4]: difficult to dissolve in aqueous buffers

N-acetyl Lysyltyrosylcyeteine amide [KYS]
Dose-dependent effect on MPO-catalyzed HOCl production (in words) (MPO [3]): failed to inhibit; also recorded: not an inhibitor | MPO/H2O2/nitrite-mediated LDL oxidation (in words) (MPO [2]): accelerated LDL oxidation
